Converted amounts (≈) assume the structure as drawn.
Legend:
[1] = tested on: Staphylococcus aureus-SMITH (GC 4543); assay: acute lethal infection in mice; assay type: in vivo; conditions: acute lethal infection, female CD-1 mice, intraperitoneal challenge, intravenous 30 min. after infection, 7 day survival
How it was run: (§1)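 ED50 from 7 day survival ratios pooled over 3 separate tests. Female CD-1 mice, 20+/−2 gm, ip bacterial challenge (trypticase soy broth or hog gastric mucin) lethal to untreated controls in 24-48 hr; iv dosing 30 min after infection in saline or 5% dextrose, n=5/dose.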

[2] = tested on: Enterococcus faecalis (GC 2246); assay: acute lethal infection in mice; assay type: in vivo; conditions: female CD-1 mice, intraperitoneal challenge, intravenous 30 min. after infection, 7 day survival
How it was run: as §1

[3] = tested on: Escherichia coli; assay: in vitro antibacterial evaluation, MIC by broth dilution; assay type: cell-based; conditions: 18 hours at 35° C.
How it was run: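 Broth dilution MIC per NCCLS M7-A2 in Mueller-Hinton II medium, inoculum 5×10^5 CFU/mL, antibiotic range 64-0.06 μg/mL. MIC taken as lowest concentration inhibiting growth.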

[4] = tested on: Enterococcus sp.; assay: as above; assay type: cell-based; conditions: broth dilution, 18 hours at 35° C.
How it was run: (§2)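 Broth dilution per NCCLS M7-A2 in Mueller-Hinton II medium, inoculum 5×10^5 CFU/mL, antibiotic range 64-0.06 μg/mL. MIC taken as lowest concentration inhibiting growth; Gram-positive panel includes recent clinical isolates resistant to methicillin, penicillin and/or vancomycin.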

[5] = tested on: Streptococcus sp.; assay: as above; assay type: cell-based; conditions: broth dilution, 18 hours at 35° C.
How it was run: as §2

[6] = tested on: Staphylococcus sp.; assay: as above; assay type: cell-based; conditions: broth dilution, 18 hours at 35° C.
How it was run: as §2

CC(c1ccccc1)C1NC(=O)CNC(=O)C(CO)NC(=O)C(C(O)C2CNC(=N)N2C2OC(CO)C(O)C(O)C2O)NC(=O)C(C(O)C2CNC(=N)N2)NC(=O)C(Cc2ccc(OC3OC(CO)C(OC4OC(COC(=O)C(c5ccccc5)c5ccccc5)C(O)C(O)C4O)C(O)C3O)cc2)NC1=O (stereo not drawn) [Example 96c, Cyclo[glycyl-β-methylphenylalanyl-O-[4-O-[6-O-(diphenylacetyl)hexolpyranosyl]hexopyranosyl]tyrosyl-3-(2-iminoimidazolidin-4-yl)seryl-3-(3-hexopyranosyl-2-iminoimidazolidin-4-yl)serylseryl]]
median effective dose (ED50), Staphylococcus aureus-SMITH (GC 4543) [1]: 0.29 mg/kg
median effective dose (ED50), Enterococcus faecalis (GC 2246) [2]: 5.2 mg/kg
MIC Escherichia coli (ATCC 25922) [3]: 64 µg/mL (≈ 43 µM)
MIC Enterococcus avium (GC 4558) ([4]; Enterococcus avium (GC 4558)): 2 µg/mL (≈ 1.34 µM)
MIC Enterococcus faecalis (ATCC 29212) ([4]; Enterococcus faecalis (ATCC 29212)): 2 µg/mL (≈ 1.34 µM)
MIC Enterococcus faecalis (GC 4552) ([4]; Enterococcus faecalis (GC 4552)): 2 µg/mL (≈ 1.34 µM)
MIC Enterococcus faecalis (GC 4553) ([4]; Enterococcus faecalis (GC 4553)): 2 µg/mL (≈ 1.34 µM)
MIC Enterococcus faecalis (GC 4554) ([4]; Enterococcus faecalis (GC 4554)): 2 µg/mL (≈ 1.34 µM)
MIC Enterococcus faecium (GC 2243) ([4]; Enterococcus faecium (GC 2243)): 2 µg/mL (≈ 1.34 µM)
MIC Enterococcus faecium (GC 4556) ([4]; Enterococcus faecium (GC 4556)): 2 µg/mL (≈ 1.34 µM)
MIC Enterococcus faecium (GC 4557) ([4]; Enterococcus faecium (GC 4557)): 1 µg/mL (≈ 0.671 µM)
MIC Enterococcus avium (GC 4558) [4]: 2 µg/mL (≈ 1.34 µM)
MIC Enterococcus faecalis (ATCC 29212) [4]: 2 µg/mL (≈ 1.34 µM)
MIC Enterococcus faecalis (GC 2242) [4]: 1 µg/mL (≈ 0.671 µM)
MIC Enterococcus faecalis (GC 4552) [4]: 2 µg/mL (≈ 1.34 µM)
MIC Enterococcus faecalis (GC 4553) [4]: 2 µg/mL (≈ 1.34 µM)
MIC Enterococcus faecalis (GC 4554) [4]: 2 µg/mL (≈ 1.34 µM)
MIC Enterococcus faecium (GC 2243) [4]: 2 µg/mL (≈ 1.34 µM)
MIC Enterococcus faecium (GC 4556) [4]: 2 µg/mL (≈ 1.34 µM)
MIC Enterococcus faecium (GC 4557) [4]: 1 µg/mL (≈ 0.671 µM)
MIC Enterococcus faecalis (GC 2242) ([4]; strain GC 2242): 1 µg/mL (≈ 0.671 µM)
MIC Streptococcus agalactiae (GC 4564) [5]: <0.06 µg/mL
MIC Streptococcus pneumoniae (GC 4565) [5]: <0.06 µg/mL
MIC Streptococcus pyogenes (ID-3187) [5]: <0.06 µg/mL
MIC Streptococcus agalactiae (GC 4564) ([5]; strain GC 4564): <0.06 µg/mL
MIC Streptococcus pneumoniae (GC 4565) ([5]; strain GC 4565): <0.06 µg/mL
MIC Streptococcus pyogenes (ID-3187) ([5]; strain ID-3187): <0.06 µg/mL
MIC Coagulase Negative Staphylococcus (GC 4547) [6]: 1 µg/mL (≈ 0.671 µM)
MIC Coagulase Negative Staphylococcus (GC 4548) [6]: 0.25 µg/mL (≈ 0.168 µM)
MIC Coagulase Negative Staphylococcus (GC 4549) [6]: 1 µg/mL (≈ 0.671 µM)
MIC Coagulase Negative Staphylococcus (GC 4551) [6]: 1 µg/mL (≈ 0.671 µM)
MIC Coagulase Negative Staphylococcus (ID-3941) [6]: 0.5 µg/mL (≈ 0.336 µM)
MIC Staphylococcus aureus-SMITH (GC 4543) [6]: 0.5 µg/mL (≈ 0.336 µM)
MIC Staphylococcus haemolyticus (GC 4546) [6]: 0.5 µg/mL (≈ 0.336 µM)
MIC Staphylococcus aureus (ATCC 29213) ([6]; strain ATCC 29213): 1 µg/mL (≈ 0.671 µM)
MIC Staphylococcus aureus (GC 1131) ([6]; strain GC 1131): 0.5 µg/mL (≈ 0.336 µM)
MIC Staphylococcus aureus (GC 4541) ([6]; strain GC 4541): 0.5 µg/mL (≈ 0.336 µM)
MIC Staphylococcus aureus (GC 4542) ([6]; strain GC 4542): 1 µg/mL (≈ 0.671 µM)
MIC Staphylococcus aureus-SMITH (GC 4543) ([6]; strain GC 4543): 0.5 µg/mL (≈ 0.336 µM)
MIC Staphylococcus aureus (GC 4544) ([6]; strain GC 4544): 1 µg/mL (≈ 0.671 µM)
MIC Staphylococcus aureus (GC 4545) ([6]; strain GC 4545): 0.5 µg/mL (≈ 0.336 µM)
MIC Staphylococcus haemolyticus (GC 4546) ([6]; strain GC 4546): 0.5 µg/mL (≈ 0.336 µM)
MIC Coagulase Negative Staphylococcus (GC 4547) ([6]; strain GC 4547): 1 µg/mL (≈ 0.671 µM)
MIC Coagulase Negative Staphylococcus (GC 4548) ([6]; strain GC 4548): 0.25 µg/mL (≈ 0.168 µM)
MIC Coagulase Negative Staphylococcus (GC 4549) ([6]; strain GC 4549): 1 µg/mL (≈ 0.671 µM)
MIC Coagulase Negative Staphylococcus (GC 4551) ([6]; strain GC 4551): 1 µg/mL (≈ 0.671 µM)
MIC Coagulase Negative Staphylococcus (ID-3941) ([6]; strain ID-3941): 0.5 µg/mL (≈ 0.336 µM)

Reference: patent US6914045B2, “Glycopeptide antibiotics” (Wyeth Holdings Corporation, priority 2001, dated 2005)
